Source: patent publication US8106055B2, “Substituted amide compounds” (Gruenenthal GmbH, priority 2007, dated 2012)

Biological target: T1, human μ opiate receptor (Homo sapiens, UniProt P35372)
T1 construct: purchased PerkinElmer Life Sciences, Zaventem, Belgium RB-HOM; host or cells: CHO-K1 cells (membrane preparation)
Assay: Affinity for the human μ opiate receptor ([3H]-naloxone displacement, CHO-K1 receptor membrane preparation, SPA)
Type: binding
Conditions: test concentration of 1 μM
How it was run: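 Test compounds, 1 nmol/l [3H]-naloxone and CHO-K1 membranes bearing the human μ opiate receptor are combined with WGA-SPA beads. After 90 minutes at room temperature, plates are centrifuged and radioactivity counted. Specific-binding inhibition at 1 μmol/l is given in percent.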

T1 sequence (P35372 whole entry): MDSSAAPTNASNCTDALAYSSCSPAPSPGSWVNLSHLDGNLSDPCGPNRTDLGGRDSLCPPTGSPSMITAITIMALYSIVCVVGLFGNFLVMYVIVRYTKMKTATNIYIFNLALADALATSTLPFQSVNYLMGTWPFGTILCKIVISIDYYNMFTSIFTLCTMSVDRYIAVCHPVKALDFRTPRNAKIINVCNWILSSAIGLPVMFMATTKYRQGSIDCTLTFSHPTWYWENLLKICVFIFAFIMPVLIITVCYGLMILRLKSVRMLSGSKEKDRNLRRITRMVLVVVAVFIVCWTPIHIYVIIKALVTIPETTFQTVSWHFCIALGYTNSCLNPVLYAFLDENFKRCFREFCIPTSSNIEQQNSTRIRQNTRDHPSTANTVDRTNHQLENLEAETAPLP

Row | SMILES | μ (binding on the μ opioid receptor, % inhibition) [%]
1 | CN(C)C(c1ccc(F)cc1)C1CCC(NC(=O)COCCN(C)S(=O)(=O)c2c(Cl)cccc2Cl)CC1 (centres unmarked) [Example 363] | 59
2 | CN(C)C(c1cccc(F)c1)C1CCC(NC(=O)COCCN2CCN(S(=O)(=O)c3ccccc3)CC2)CC1 (centres unmarked) [Example 364] | 58
3 | COc1cc(C)c(S(=O)(=O)N2CCC(OCC(=O)NC3CCC(C(c4ccc(F)cc4)N(C)C)CC3)C2)c(C)c1C (centres unmarked) [Example 365] | 49
4 | COc1cc(C)c(S(=O)(=O)N2CCN(CCOCC(=O)NCC3CCC(C(c4ccc(F)cc4)N(C)C)CC3)CC2)c(C)c1C (centres unmarked) [Example 366] | 55
5 | COc1ccc(S(=O)(=O)N2CCCCC2COCC(=O)NCC2CCC(C(c3ccc(Cl)cc3)N(C)C)CC2)cc1OC (centres unmarked) [Example 367] | 60
6 | CN(C)C(c1ccc(F)cc1)C1CCC(CCNC(=O)COCCN(C)S(=O)(=O)c2cccc(C(F)(F)F)c2)CC1 (centres unmarked) [Example 368] | 61
7 | CN(C)C(c1ccc(F)cc1)C1CCC(NC(=O)COC2CCN(S(=O)(=O)c3ccc(Cl)cc3)C2)CC1 (centres unmarked) [Example 370] | 59
8 | Cc1ccc(S(=O)(=O)N2CCC(OCC(=O)NC3CCC(C(c4ccc(F)cc4)N(C)C)CC3)C2)cc1 (centres unmarked) [Example 371] | 57
9 | COc1cc(C)c(S(=O)(=O)N(CCOCC(=O)NC2CCC(C(c3cccc(F)c3)N(C)C)CC2)Cc2ccccc2)c(C)c1 (centres unmarked) [Example 372] | 59
10 | COc1ccc(S(=O)(=O)N2Cc3ccccc3CC2COCC(=O)NCC2CCC(C(CCc3ccccc3)N(C)C)CC2)cc1 (centres unmarked) [Example 373] | 62
11 | COc1ccc(S(=O)(=O)N2Cc3ccccc3CC2COCC(=O)NCCC2CCC(C(c3ccc(Cl)cc3)N(C)C)CC2)cc1 (centres unmarked) [Example 374] | 59
12 | CN(C)C(c1ccc(Cl)cc1)C1CCC(CCNC(=O)COC2CCN(S(=O)(=O)c3ccccc3)C2)CC1 (centres unmarked) [Example 375] | 53
13 | CN(C)C(c1cccc(F)c1)C1CCC(CCNC(=O)COC2CCN(S(=O)(=O)c3ccccc3)C2)CC1 (centres unmarked) [Example 376] | 62
14 | CN(C)C(c1ccc(F)cc1)C1CCC(CCNC(=O)COCCN(C)S(=O)(=O)c2ccc(Cl)cc2)CC1 (centres unmarked) [Example 377] | 59
15 | COc1cc(C)c(S(=O)(=O)N(C)CCOCC(=O)NCCC2CCC(C(c3ccc(Cl)cc3)N(C)C)CC2)c(C)c1 (centres unmarked) [Example 378] | 58
16 | COc1ccc(S(=O)(=O)N(C)CCOCC(=O)NCC2CCC(C(c3ccc(Cl)cc3)N(C)C)CC2)cc1OC (centres unmarked) [Example 379] | 45
17 | CN(C)C(c1ccc(F)cc1)C1CCC(NC(=O)COC2CCN(S(=O)(=O)c3ccc(F)cc3)C2)CC1 (centres unmarked) [Example 381] | 54
18 | CN(C)C(c1ccc(F)cc1)C1CCC(NC(=O)COCCN(C)S(=O)(=O)c2c(Cl)cc(Cl)cc2Cl)CC1 (centres unmarked) [Example 382] | 60
19 | COc1ccc(S(=O)(=O)N2CCCCC2CCOCC(=O)NCCC2CCC(C(c3ccc(Cl)cc3)N(C)C)CC2)cc1 (centres unmarked) [Example 383] | 59
20 | CN(C)C(c1ccc(Cl)cc1)C1CCC(CNC(=O)COC2CCN(S(=O)(=O)c3ccc(Cl)cc3)C2)CC1 (centres unmarked) [Example 384] | 55
21 | CN(C)C(c1ccc(F)cc1)C1CCC(CCNC(=O)COCCN(C)S(=O)(=O)c2c(Cl)cc(Cl)cc2Cl)CC1 (centres unmarked) [Example 386] | 63
22 | COc1cc(C)c(S(=O)(=O)N2CCN(CCOCC(=O)NCCC3CCC(C(c4ccc(F)cc4)N(C)C)CC3)CC2)c(C)c1C (centres unmarked) [Example 387] | 53
23 | COc1cc(C)c(S(=O)(=O)N(CCOCC(=O)NCC2CCC(C(c3cccc(F)c3)N(C)C)CC2)Cc2ccccc2)c(C)c1 (centres unmarked) [Example 388] | 65
24 | COc1ccc(S(=O)(=O)N2Cc3ccccc3CC2COCC(=O)NCCC2CCC(C(c3ccc(F)cc3)N(C)C)CC2)cc1 (centres unmarked) [Example 389] | 58
25 | CN(C)C(c1ccc(F)cc1)C1CCC(CNC(=O)COCCN(C)S(=O)(=O)c2cccc(C(F)(F)F)c2)CC1 (centres unmarked) [Example 390] | 55
26 | CN(C)C(c1ccc(F)cc1)C1CCC(CNC(=O)COC2CCN(S(=O)(=O)c3ccc(Cl)cc3Cl)C2)CC1 (centres unmarked) [Example 391] | 56
27 | COc1cc(C)c(S(=O)(=O)N(C)CCOCC(=O)NCCC2CCC(C(c3ccc(F)cc3)N(C)C)CC2)c(C)c1 (centres unmarked) [Example 392] | 57

Row | SMILES | μ (binding on the μ opioid receptor, % inhibition) [%]
28 | Cc1cc(C)c(S(=O)(=O)N2CCC(OCC(=O)NCC3CCC(C(c4ccc(Cl)cc4)N(C)C)CC3)C2)c(C)c1 (centres unmarked) [Example 393] | 55
29 | CN(C)C(c1ccc(Cl)cc1)C1CCC(CNC(=O)COC2CCN(S(=O)(=O)c3ccc(F)cc3)C2)CC1 (centres unmarked) [Example 394] | 56
30 | CN(C)C(c1ccc(Cl)cc1)C1CCC(CCNC(=O)COC2CCCN(S(=O)(=O)c3ccccc3)C2)CC1 (centres unmarked) [Example 395] | 54
31 | CCN(CCOCC(=O)NC1CCC(C(c2ccc(F)cc2)N(C)C)CC1)S(=O)(=O)c1c(C)cc(OC)c(C)c1C (centres unmarked) [Example 396] | 60
32 | COc1cc(C)c(S(=O)(=O)N2CCC(CCOCC(=O)NCCC3CCC(C(c4cccc(F)c4)N(C)C)CC3)CC2)c(C)c1C (centres unmarked) [Example 397] | 67
33 | COc1ccc(S(=O)(=O)N2CCCCC2CCOCC(=O)NCCC2CCC(C(c3ccc(F)cc3)N(C)C)CC2)cc1 (centres unmarked) [Example 398] | 59
34 | CN(C)C(c1ccc(F)cc1)C1CCC(CNC(=O)COCCN(C)S(=O)(=O)c2ccc(Cl)cc2)CC1 (centres unmarked) [Example 399] | 52
35 | CN(C)C(c1ccc(F)cc1)C1CCC(CNC(=O)COCCN(C)S(=O)(=O)c2ccc(F)cc2)CC1 (centres unmarked) [Example 400] | 55
36 | COc1ccc(S(=O)(=O)N(C)CCOCC(=O)NC2CCC(C(c3cccc(F)c3)N(C)C)CC2)cc1OC (centres unmarked) [Example 401] | 49
37 | CN(C)C(c1ccc(F)cc1)C1CCC(CNC(=O)COC2CCN(S(=O)(=O)c3cccc(C(F)(F)F)c3)C2)CC1 (centres unmarked) [Example 402] | 53
38 | COc1cc(C)c(S(=O)(=O)N2CCC(OCC(=O)NCC3CCC(C(c4ccc(Cl)cc4)N(C)C)CC3)C2)c(C)c1 (centres unmarked) [Example 403] | 52
39 | CN(C)C(c1ccc(F)cc1)C1CCC(CNC(=O)COCCN(C)S(=O)(=O)c2c(Cl)cc(Cl)cc2Cl)CC1 (centres unmarked) [Example 404] | 53
40 | COc1ccc(S(=O)(=O)N2CCCCC2COCC(=O)NCC2CCC(C(c3ccc(F)cc3)N(C)C)CC2)c(OC)c1 (centres unmarked) [Example 405] | 52
41 | CN(C)C(c1ccc(F)cc1)C1CCC(NC(=O)COCCN(C)S(=O)(=O)c2ccc(Cl)cc2)CC1 (centres unmarked) [Example 406] | 51
42 | CN(C)C(c1cccc(F)c1)C1CCC(CCNC(=O)COC2CCN(S(=O)(=O)c3ccc(F)cc3)C2)CC1 (centres unmarked) [Example 407] | 54
43 | CN(C)C(c1ccc(F)cc1)C1CCC(NC(=O)COC2CCN(S(=O)(=O)c3ccccc3)CC2)CC1 (centres unmarked) [Example 408] | 48
44 | COc1ccc(S(=O)(=O)N2CCCC2COCC(=O)NCCC2CCC(C(c3ccc(F)cc3)N(C)C)CC2)cc1 (centres unmarked) [Example 409] | 54
45 | CN(C)C(c1ccc(Cl)cc1)C1CCC(CCNC(=O)COC2CCCCC2N(C)S(=O)(=O)c2ccc(Cl)c(Cl)c2)CC1 (centres unmarked) [Example 410] | 50
46 | CN(C)C(c1ccc(Cl)cc1)C1CCC(CNC(=O)COCCN(C)S(=O)(=O)c2ccc(OC(F)(F)F)cc2)CC1 (centres unmarked) [Example 411] | 60
47 | COc1cc(C)c(S(=O)(=O)N2CCC(OCC(=O)NCCC3CCC(C(c4ccc(Cl)cc4)N(C)C)CC3)C2)c(C)c1C (centres unmarked) [Example 412] | 50
48 | CCN(CCOCC(=O)NCCC1CCC(C(c2ccc(F)cc2)N(C)C)CC1)S(=O)(=O)c1c(C)cc(OC)c(C)c1C (centres unmarked) [Example 413] | 55
49 | COc1cc(C)c(S(=O)(=O)N(CCOCC(=O)NCC2CCC(C(c3cccc(F)c3)N(C)C)CC2)Cc2ccccc2)c(C)c1C (centres unmarked) [Example 414] | 64
50 | CN(C)C(CCc1ccccc1)C1CCC(CNC(=O)COCC2CCCN2S(=O)(=O)c2ccc(Cl)c(Cl)c2)CC1 (centres unmarked) [Example 415] | 55
51 | Cc1cc(C)c(S(=O)(=O)N(C)CCOCC(=O)NCCC2CCC(C(c3ccc(Cl)cc3)N(C)C)CC2)c(C)c1 (centres unmarked) [Example 416] | 53
52 | COc1cc(C)c(S(=O)(=O)N2CCCC(OCC(=O)NCC3CCC(C(c4ccc(F)cc4)N(C)C)CC3)C2)c(C)c1C (centres unmarked) [Example 418] | 51
53 | COc1cc(C)c(S(=O)(=O)N(CCOCC(=O)NC2CCC(C(c3cccc(F)c3)N(C)C)CC2)Cc2ccccc2)c(C)c1C (centres unmarked) [Example 419] | 53
